Data reported in US8343459B2, “Method for production of radiation diagnostic imaging agent” (Nihon Medi-Physics Co., Ltd., priority 2007, dated 2013).

Assay: Relationship between pH and decrease of radiochemical purity (storage at 25° C., TLC analysis)
Format: physicochemical
Conditions: pH value not more than 5.9, no pharmaceutical additives or buffers that prevent radiolysis
Description: Radioactivity of the obtained stock solution of anti-[^18F]-FACBC was measured, and then the stock solution was diluted with a physiological saline solution so as to have a radioactive concentration of about 510 MBq/mL at the time when experiment was initiated (0 hour in Table 9). 2.23 mL of this solution was aliquoted in a vial of 5 mL in volume, and a predetermined amount of a predetermined solution indicated in Table 8 was added thereto, to obtain a sample solution. The radioactive concentration of the sample solutions at the end of preparation was […].
The sample solution was stored in an electric thermostatic chamber adjusted to 25° C., and was then subjected to TLC analysis which was performed on the following conditions at the time of initiation of the experiment (0 hour) and 8.5 hours after the initiation of the experiment. Values of radiochemical purity were calculated in accordance with the following equation (1). Measurement of the radiochemical purity was repeated three times for each sample solution.
Mobile phase: acetonitrile/water/100% acetic acid=4/1/1
TLC plate: Silica Gel 60F254 (trade name, thickness: 0.25 mm, manufactured by Merck & Co., Inc.)
TLC scanner: Rita Star (manufactured by Raytest)
Number of analysis: Three times
For `NC1(C(=O)O)CC([18F])C1` (centres unmarked) [[^18F]FACBC, 3-[^18F]fluoro-1-aminocyclobutanecarboxylic acid], the stability against radiolysis was “stability thereof is maintained”.

Assay: not given
Conditions: Japanese Pharmaceutical Excipients Directory 2000; cited from earlier work
In the case of `OC[C@H]1O[C@H](O[C@H]2[C@H](O)[C@@H](O)[C@H](O)O[C@@H]2CO)[C@H](O)[C@@H](O)[C@@H]1O` [martose], the “maximum dose in case of intravenous administration” value (“maximum dose in case” below) is given as 10 g. For `OC[C@@H](O)[C@@H](O)[C@H](O)[C@@H](O)CO` [sorbitol], the “maximum dose in case” value is given as 1.5 g. For `OC[C@H]1O[C@@H](O[C@H]2[C@H](O)[C@@H](O)C(O)O[C@@H]2CO)[C@H](O)[C@@H](O)[C@H]1O` (some centres unmarked) [lactose], the “maximum dose in case” value is given as 1.25 g. In the case of `OC[C@@H](O)[C@@H](O)[C@H](O)[C@H](O)CO` [mannitol], the “maximum dose in case” value is listed as 1.2 g. In the case of `OC[C@@H](O)[C@H](O)[C@@H](O)CO` [xylitol], the “maximum dose in case” value is listed as 0.2 g. For `O=C(CO)[C@@H](O)[C@H](O)[C@H](O)CO` [fructose], the “maximum dose in case” value is given as 0.9 g. In the case of `O=C[C@H](O)[C@@H](O)[C@H](O)[C@H](O)CO` [glucose], the “maximum dose in case” value is listed as 8 g.
